Literature values in PMC12998938, “Neutrophil store-operated Ca^2+ entry: A correctable biomarker of cystic fibrosis lung disease progression” (Journal of cystic fibrosis : official journal of the …, 2025).

Tested on: Pseudomonas aeruginosa-infected mice
Settings: ref [21], cited from earlier work

Sequence: VHDIVNMLIRG [ELD607, size-optimized SPLUNC1/α6 peptidomimetic]
- neutrophilia and neutrophil elastase release (P. aeruginosa-infected mice): reduces neutrophilia and neutrophil elastase release
- neutrophil influx into the lungs (mice, P. aeruginosa, reduced lung injury, increased survival): reduces neutrophil influx into the lungs of mice
